Key:
[1] = test system: OVCAR-4; assay: Antitumor activity against human OVCAR4 cells; assay type: functional, cell-based
[2] = test system: UACC-62; assay: Antitumor activity against human UACC62 cells; assay type: functional, cell-based
[3] = test system: DU-145; assay: Antitumor activity against human DU145 cells; assay type: functional, cell-based
[4] = test system: RPMI-8226; assay: Antitumor activity against human RPMI8226 cells; assay type: functional, cell-based
[5] = test system: SNB-19; assay: Antitumor activity against human SNB19 cells; assay type: functional, cell-based
[6] = test system: CCRF-CEM; assay: Cytotoxicity against human CEM cells at 0.4 ug/disk by disk diffusion soft agar colony formation assay; assay type: functional
[7] = test system: NCI-H460; assay: Antitumor activity against human NCI-H460 cells; assay type: functional, cell-based
[8] = test system: UO-31; assay: Antitumor activity against human UO31 cells; assay type: functional, cell-based
[9] = test system: T47D; assay: Antitumor activity against human T47D cells; assay type: functional, cell-based
[10] = test system: HL-60(TB); assay: Antitumor activity against human HL-60(TB) cells; assay type: functional, cell-based
[11] = test system: SK-OV-3; assay: Antitumor activity against human SKOV3 cells; assay type: functional, cell-based
[12] = test system: MDA-N; assay: Antitumor activity against human MDA-N cells; assay type: functional, cell-based
[13] = test system: NCI-H23; assay: Antitumor activity against human NCI-H23 cells; assay type: functional, cell-based
[14] = test system: HCC 2998; assay: Antitumor activity against human HCC2998 cells; assay type: functional, cell-based
[15] = test system: PC-3; assay: Antitumor activity against human PC3 cells; assay type: functional, cell-based
[16] = test system: CCRF-CEM; assay: Antitumor activity against human CCRF-CEM cells; assay type: functional, cell-based
[17] = test system: U-251; assay: Antitumor activity against human U251 cells; assay type: functional, cell-based
[18] = test system: SN12C; assay: Antitumor activity against human SN12C cells; assay type: functional, cell-based
[19] = test system: IGROV-1; assay: Antitumor activity against human IGROV1 cells; assay type: functional, cell-based
[20] = test system: SF-295; assay: Antitumor activity against human SF295 cells; assay type: functional, cell-based
[21] = test system: MC-38; assay: Cytotoxicity against mouse C38 cells at 0.4 ug/disk by disk diffusion soft agar colony formation assay; assay type: functional
[22] = test system: COLO 205; assay: Antitumor activity against human COLO205 cells; assay type: functional, cell-based
[23] = test system: M14; assay: Antitumor activity against human M14 cells; assay type: functional, cell-based
[24] = test system: NCI-H522; assay: Antitumor activity against human NCI-H522 cells; assay type: functional, cell-based
[25] = test system: CAKI-1; assay: Antitumor activity against human Caki1 cells; assay type: functional, cell-based
[26] = test system: MDA-MB-231; assay: Antitumor activity against human MDA-MB-231 cells; assay type: functional, cell-based
[27] = test system: NCI-H322M; assay: Antitumor activity against human NCI-H322M cells; assay type: functional, cell-based
[28] = test system: SK-MEL-28; assay: Antitumor activity against human SK-MEL-28 cells; assay type: functional, cell-based
[29] = test system: LOX IMVI; assay: Antitumor activity against human LOXIMVI cells; assay type: functional, cell-based
[30] = test system: BT-549; assay: Antitumor activity against human BT549 cells; assay type: functional, cell-based
[31] = test system: UACC-257; assay: Antitumor activity against human UACC257 cells; assay type: functional, cell-based
[32] = test system: HT-29; assay: Antitumor activity against human HT-29 cells; assay type: functional, cell-based
[33] = test system: HCT-116; assay: Antitumor activity against human HCT116 cells; assay type: functional, cell-based
[34] = test system: MCF7; assay: Antitumor activity against human MCF7 cells; assay type: functional, cell-based
[35] = test system: SNB-75; assay: Antitumor activity against human SNB75 cells; assay type: functional, cell-based
[36] = test system: ACHN; assay: Antitumor activity against human ACHN cells; assay type: functional, cell-based
[37] = Cytotoxicity against mouse CFU-GM cells at 0.4 ug/disk by disk diffusion soft agar colony formation assay; assay type: cell-based
[38] = test system: Malme-3M; assay: Antitumor activity against human MALME-3M cells; assay type: functional, cell-based
[39] = test system: A498; assay: Antitumor activity against human A498 cells; assay type: functional, cell-based
[40] = test system: SK-MEL-5; assay: Antitumor activity against human SK-MEL-5 cells; assay type: functional, cell-based
[41] = test system: SF-268; assay: Antitumor activity against human SF268 cells; assay type: functional, cell-based
[42] = test system: SR; assay: Antitumor activity against human SR cells; assay type: functional, cell-based
[43] = test system: RXF 393; assay: Antitumor activity against human RXF393 cells; assay type: functional, cell-based
[44] = test system: NCI-H226; assay: Antitumor activity against human NCI-H226 cells; assay type: functional, cell-based
[45] = test system: SF-539; assay: Antitumor activity against human SF539 cells; assay type: functional, cell-based
[46] = test system: SW-620; assay: Antitumor activity against human SW620 cells; assay type: functional, cell-based
[47] = test system: HCT-15; assay: Antitumor activity against human HCT15 cells; assay type: functional, cell-based
[48] = test system: OVCAR-3; assay: Antitumor activity against human OVCAR-3 cells; assay type: functional, cell-based
[49] = test system: MCF7; assay: Antitumor activity against […] human MCF7 cells; assay type: functional, cell-based
[50] = test system: MOLT-4; assay: Antitumor activity against human MOLT4 cells; assay type: functional, cell-based
[51] = Antitumor activity against human Hs 578T cells; assay type: functional, cell-based
[52] = test system: K562; assay: Antitumor activity against human K562 cells; assay type: functional, cell-based
[53] = test system: OVCAR-5; assay: Antitumor activity against human OVCAR5 cells; assay type: functional, cell-based
[54] = test system: OVCAR-8; assay: Antitumor activity against human OVCAR8 cells; assay type: functional, cell-based
[55] = test system: L1210; assay: Cytotoxicity against mouse L1210 cells at 0.4 ug/disk by disk diffusion soft agar colony formation assay; assay type: functional
[56] = test system: A549; assay: Antitumor activity against human A549/ATCC cells; assay type: functional, cell-based
[57] = Antitumor activity against human 786-O cells; assay type: functional, cell-based; conditions: 786-0
[58] = test system: EKVX; assay: Antitumor activity against human EKVX cells; assay type: functional, cell-based
[59] = test system: KM12; assay: Antitumor activity against human KM12 cells; assay type: functional, cell-based
[60] = Cytotoxicity against human H125 cells at 0.4 ug/disk by disk diffusion soft agar colony formation assay; assay type: functional
[61] = test system: HOP-62; assay: Antitumor activity against human HOP62 cells; assay type: functional, cell-based
[62] = Cytotoxicity against human H116 cells at 0.4 ug/disk by disk diffusion soft agar colony formation assay; assay type: functional
[63] = test system: MDA-MB-435; assay: Antitumor activity against human MDA-MB-435 cells; assay type: functional, cell-based
[64] = test system: TK-10; assay: Antitumor activity against human TK10 cells; assay type: functional, cell-based

O=C1c2ccccc2-[n+]2ccc3c([nH]c4ccccc43)c21.[Cl-] [FASCAPLYSIN CHLORIDE]
IC50 [1]: 5.3 µM | IC50 [2]: 4.9 µM | IC50 [3]: 4.9 µM | IC50 [4]: > 10 µM | IC50 [5]: 6.1 µM | Activity [6]: 300 Zone units | IC50 [7]: 4.2 µM | IC50 [8]: > 10 µM | IC50 [9]: > 10 µM | IC50 [10]: > 10 µM | IC50 [11]: > 10 µM | IC50 [12]: 0.56 µM | IC50 [13]: 4.5 µM | IC50 [14]: 1.7 µM | IC50 [15]: > 10 µM | IC50 [16]: > 10 µM | IC50 [17]: 3.6 µM | IC50 [18]: 4.2 µM | IC50 [19]: 4.5 µM | IC50 [20]: 3.9 µM | Activity [21]: 500 Zone units | IC50 [22]: 1.2 µM | IC50 [23]: 0.92 µM | IC50 [24]: 4.5 µM | IC50 [25]: 6.1 µM | IC50 [26]: > 10 µM | IC50 [27]: 5 µM | IC50 [28]: 9.3 µM | IC50 [29]: > 10 µM | IC50 [30]: > 10 µM | IC50 [31]: > 10 µM | IC50 [32]: > 10 µM | IC50 [33]: 0.6 µM | IC50 [34]: > 10 µM | IC50 [35]: 5.4 µM | IC50 [36]: > 10 µM | Activity [37]: 200 Zone units | IC50 [38]: 0.36 µM | IC50 [39]: 5.2 µM | IC50 [40]: 2 µM | IC50 [41]: > 10 µM | IC50 [42]: > 10 µM | IC50 [43]: 3.5 µM | IC50 [44]: 9.6 µM | IC50 [45]: 4.2 µM | IC50 [46]: 3.7 µM | IC50 [47]: > 10 µM | IC50 [48]: 1.5 µM | IC50 [49]: > 10 µM | IC50 [50]: > 10 µM | IC50 [51]: > 10 µM | IC50 [52]: > 10 µM | IC50 [53]: 4.4 µM | IC50 [54]: > 10 µM | Activity [55]: 400 Zone units | IC50 [56]: 4.2 µM | IC50 [57]: 6.7 µM | IC50 [58]: 5.1 µM | IC50 [59]: 4.6 µM | Activity [60]: 400 Zone units | IC50 [61]: 4.7 µM | Activity [62]: 500 Zone units | IC50 [63]: 0.56 µM | IC50 [64]: 5.4 µM

— ChEMBL document CHEMBL1151200, “Comparison of fascaplysin and related alkaloids: a study of structures, cytotoxicities, and sources” (J Nat Prod, 2004)
